Source: US20230072528A1, “METHODS FOR DISCONTINUING A TREATMENT WITH A TYROSINE KINASE INHIBITOR (TKI)” (INSERM (Institut National de la Santé et de la Recherche …, priority 2020, published 2023)

Tested on: innate CD8(+) T-cells
Test: Ex vivo flow cytometry of peripheral blood CD8(+) T-cell subsets in CML patients under therapy (DASA-PEGIFN phase II trial)
Parameters: species or system human
Conditions: for innate CD8(+) T-cell frequency (mean±SD): 3 months after initiation of therapy
Procedure: The phase II DASA-PEGIFN clinical trial was registered with EudraCT number 2012-003389-42. Briefly, newly diagnosed Ph^+ CP-CML patients were treated first-line with dasatinib at 100 mg/day. At 3 months, they were assigned to receive Peg-IFNα2b associated to dasatinib when platelets>100×109/L, neutrophils>1.5×10^9/L and lymphocytes<4.0×109/L counts were achieved. Venous blood was collected on heparin at several time points: diagnosis, 3, 6, 12 and 24 months after initiation of treatment Among the 61 patients receiving Dasatinib+Peg-IFNα2b therapy, we analysed samples from 40 patients. Two out of them were excluded for technical issues. See Table 1 for detailed patient's characteristics. Patients response to treatment were classified conforming to 2013 ELN criteria. Major molecular response was defined as a ratio of BCR-ABL1/ABL1≤0.1% on the international scale (IS). A ratio of BCR-ABL1/ABL1IS≤0.01% defined a molecular response of 4-log reduction or in our work a deep molecular response (DMR). All patients gave informed consent in accordance with the Declaration of Helsinki for participation in the study, which was approved by the scientific committee of the INSERM CIC-1402 (Poitiers, France) and Comité Protection Personnes Recherche Biomédicale Région Poitou Charentes (protocol number 12.10.31).
Peripheral blood mononuclear cells (PBMC) were isolated from blood samples by density gradient centrifugation (Histopaque®-1077, Sigma-Aldrich, St Louis, Mo., US), resuspended in 90% Fetal Bovine Serum (10270106, Gibco®, Thermo Fisher Scientific, Waltham, Mass., US) with 10% DMSO (D2650, Sigma-Aldrich), and cryopreserved at −80° C. or in liquid nitrogen until use.
Phenotypic analysis of cells from HD and CML patients was performed by ex vivo flow cytometry. All monoclonal antibodies (mAbs) used in this study are listed in Supplementary Table 2. The expression of the different markers was assessed by staining PBMC with appropriate combinations of mAbs. panKIR/NKG2A referred to staining with the mix of the three following antibodies from Miltenyi Biotec (Bergisch Gladbach, Germany) KIR2D, KIR3DL1/KIR3DL2 (CD158e/k) and NKG2A (CD159a). Dead cells were excluded using the Live/Dead® Fixable NearIR Dead Cell Stain kit (L10119, Invitrogen™, Thermo Fisher Scientific). For intranuclear Eomes staining, cells were permeabilized with anti-human Foxp3 staining kit according to the manufacturer's protocol (73-5776-40, eBioscience™, Thermo Fisher Scientific). Flow data were acquired on a FACSVerse flow cytometer (Becton, Dickinson & Compagny, Franklin Lakes, N.J., US) with FACSuite™ software (Becton, Dickinson & Compagny) and analyzed using FlowJo™ v10 (Becton, Dickinson & Compagny). Results are expressed as either percent positive cells or as mean fluorescence intensity (MFI).
Results are shown as box and whiskers with 5 percentile, median and 95 percentile unless indicated otherwise. All statistical data analyses were performed using GraphPad Prism v7.0 (GraphPad software, Inc). Wilcoxon and Mann-Whitney two-tailed test were used for paired and unpaired data analysis, respectively. A p value<0.05 was considered significant. Cumulative response rates were calculated using the cumulative incidence approach and Mantle-Cox method. The cut-off point for innate CD8(+) T-cells was optimized by receiver operating characteristics (ROC) curves and the Youden index using the logarithm of innate CD8(+) T-cell frequency at diagnosis and after 3 months of therapy. Patients were dichotomized according to their low or high percentage of innate CD8(+) T-cells. Data are presented as Kaplan-Meier curves.

[1] = after 3 months of therapy as compared to diagnosis

Cc1nc(Nc2ncc(C(=O)Nc3c(C)cccc3Cl)s2)cc(N2CCN(CCO)CC2)n1 [dasatinib, N-(2-chloro-6-methylphenyl)-2-[[6-[4-(2-hydroxyethyl)-1-piperazinyl]-2-methyl-4-pyrimidinyl]amino]-5-thiazole-carboxamide monohydrate]
innate CD8(+) T-cell frequency (mean±SD) (M12-DMR group (DMR achieved at 12 months)): 9.14±6.54% | innate CD8(+) T-cell frequency (mean±SD) (M12-noDMR group (no DMR at 12 months)): 3.48±2.43% | frequency of innate CD8(+) T-cells (mean±SD) (CML patients, whole group, after 3 months of therapy, among total CD8+TCR-αβ+ cells, 3.78±3.39% at diagnosis): 5.98±5.43% | Eomes and CD49d expression levels of innate CD8(+) T-cells [1]: significant increase | conventional-memory CD8(+) T-cell frequency [1]: concomitantly increased | naive CD8(+) T-cell frequency [1]: decreased
